This is an account of results in patent US9624167B2, “N-(4-hydroxy-4-methyl-cyclohexyl)-4-phenyl-benzenesulfonamides and N-(4-hydroxy-4-methyl-cyclohexyl)-4-(2-pyridyl)benzenesulfonamides and their therapeutic use” (PIMCO 2664 LIMITED, priority 2013, dated 2017).

Each structure is given as a SMILES string. Like-named read-outs stand apart in the source and are kept apart here.

For data set [1], the system named is IL-6 release from LPS-stimulated Thp1 macrophages. Briefly: Thp1 Macrophage IL-6 Release Assay. The class given is cell-based. The conditions noted are these: Homo sapiens. The text has this:
Anti-inflammatory effects were further characterised by assessing the production of interleukin-6 (IL-6) by human Thp-1 derived macrophages stimulated with a pro-inflammatory stimulus bacterial lipopolysaccharide (LPS). LPS acts with a cell-surface receptor, Toll-like receptor-4 to activate the NFκB and IRF signalling pathways to produce IL-6. The reduction of IL—in this stimulated assay is indicative of anti-inflammatory effects with utility in the treatment of conditions in which IL-6 production is aberrant.
In vitro potency of test compounds in human cells was determined by incubation with Thp1 macrophages and subsequent stimulation with an inflammatory stimulus (bacterial lipopolysaccharide (LPS)) followed by measurement of cellular interleukin-6 (IL-6) release.
Thp1 cells were plated at a concentration of 1×10^5 cells/well or 1.7×10^5 cells/well in 500 μL or 150 μL RPMI complete media containing 1% penicillin-streptomycin and 10% heat inactivated foetal bovine serum in 24-well plates or 96-well plates, respectively and allowed to adhere overnight. The following day, the cells were stimulated with phorbol myristic acid (PMA) at a final concentration of 100 nM (24-well plates) or 200 nM (96-well plates) to induce differentiation and maintained for up to 8 days with a medium change at 5 days if cells were cultured to 8 days. Test compounds were prepared as […] solutions in DMSO and then serially diluted in DMSO prior to dilution in culture medium.
The diluted compounds were added to the cultures 1 hour prior to stimulation with 100 ng/mL LPS. Following a 16 or 18 hour incubation at 37° C./5% CO2, the cell culture medium was collected and assayed for human IL-6 levels using the human IL-6 duo-set ELISA kit (R&D Systems). The average results for each test compound (n=3) were expressed as a percent (%) of the average control value. The average values across the concentrations tested were then plotted and the IC50 for the inhibition of IL-6 was calculated by fitting the data to a 4-parameter IC50 equation using software from Grafit version 6.0.12 (Erithacus Software Ltd., by Dr Robin Leatherbarrow) or GraphPad Prism version 5.04 for Windows (GraphPad Software, La Jolla, Calif., USA, www.qraphpad.com). Each experiment was repeated twice and the data are presented as the mean IC50 from both experiments.

A further data set deals with T1, hERG (Homo sapiens, UniProt Q12809).
T1 construct: expressed in transfected cells; host or cells: Chinese Hamster Ovary cells (hERG-CHO), stably transfected
Briefly: hERG Ion Channel Assay (Q-patch, hERG-CHO cells). The class given is cell-based. Conditions: human, CHO cells stably transfected with hERG (hERG-CHO), pH 7.4, 30 μM. The procedure: The activity of the compounds against the hERG ion channel was tested. The assay was conducted using the automated path-clamp, Q-patch method using stably transfected Chinese Hamster Ovary cells (hERG-CHO). hERG-CHO cells were cultured in F-12 Kaighn's Nutrient Mixture medium (Invitrogen)+10% FBS at 37° C. for 1-3 days. Cells were kept at 30° C. for 24 to 48 hours prior to patch clamping in order to increase the hERG current amplitude. Subsequently, the cells were harvested by trypsinisation, and kept in Serum Free Medium (SFM) in the Q-patch cell preparation state for up to 6 hours at room temperature before being washed and re-suspended in extracellular solution and applied to the patch clamp sites for data recording.
Patch-clamp voltage protocol: After whole cell configuration was achieved, the cell was held at −80 mV. A 50 millisecond pulse to −40 mV was delivered to measure the leaking current, which was subtracted from the tail current on-line. Then the cell was depolarized to +20 mV for 2 seconds, followed by a one second pulse to −40 mV to reveal hERG tail current. This paradigm was delivered once every 5 seconds to monitor the current amplitude.
Extracellular solution: 137 mM NaCl, 4 mM KCl, 1.8 mM CaCl2, 1 mM MgCl2, 10 mM D(+)-glucose, 10 mM HePES buffer (pH adjusted to 7.4 with NaOH).
After the whole cell configuration was achieved, the extracellular solution (control) was applied first and the cell was stabilized for 2 minutes in extracellular solution. The test compound was then applied from low concentrations to high concentrations cumulatively. The cell was incubated with each test concentration for 5 minutes. During each incubation, the cell was repetitively stimulated using the voltage protocol described above, and the tail current amplitude was continuously monitored.
• (1) Peak tail current >100 pA in control. • (2) Initial run-down <30% and the run-down stops before first application of the test compound. • (3) Leak currents <50% of the control peak tail currents at any time. • (4) rs<20 MΩ throughout the experiment.
The degree of inhibition (%) was obtained by measuring the tail current amplitude, induced by a one second test pulse to −40 mV after a two second pulse to +20 mV, before and after incubation with the test compound. The difference in current was normalized to control and multiplied by 100 in order to obtain the percent inhibition.
Concentration (log) response curves were fitted to a logistic equation (three parameters assuming complete block of the current at very high test compound concentrations) to generate estimates of the 50% inhibitory concentration (IC50). The concentration-response relationship of each compound was constructed from the percentage reductions of current amplitude by sequential concentrations.
(The hERG channel carries a current that helps repolarise heart muscle cells.)

The mark [2] stands for this setting: THP-1, 1 × 10^5 cells/well, 24-well plates, 8 days, 6 point curve, IL6 measured 16 hours after LPS, read-out: IC50 (1).
The mark [3] stands for this setting: THP-1, 1.7 × 10^5 cells/well, 96-well plates, 3 days, 9 point curve, IL6 measured 18 hours after LPS, read-out: IC50 (2).

T1 sequence (Q12809 whole entry): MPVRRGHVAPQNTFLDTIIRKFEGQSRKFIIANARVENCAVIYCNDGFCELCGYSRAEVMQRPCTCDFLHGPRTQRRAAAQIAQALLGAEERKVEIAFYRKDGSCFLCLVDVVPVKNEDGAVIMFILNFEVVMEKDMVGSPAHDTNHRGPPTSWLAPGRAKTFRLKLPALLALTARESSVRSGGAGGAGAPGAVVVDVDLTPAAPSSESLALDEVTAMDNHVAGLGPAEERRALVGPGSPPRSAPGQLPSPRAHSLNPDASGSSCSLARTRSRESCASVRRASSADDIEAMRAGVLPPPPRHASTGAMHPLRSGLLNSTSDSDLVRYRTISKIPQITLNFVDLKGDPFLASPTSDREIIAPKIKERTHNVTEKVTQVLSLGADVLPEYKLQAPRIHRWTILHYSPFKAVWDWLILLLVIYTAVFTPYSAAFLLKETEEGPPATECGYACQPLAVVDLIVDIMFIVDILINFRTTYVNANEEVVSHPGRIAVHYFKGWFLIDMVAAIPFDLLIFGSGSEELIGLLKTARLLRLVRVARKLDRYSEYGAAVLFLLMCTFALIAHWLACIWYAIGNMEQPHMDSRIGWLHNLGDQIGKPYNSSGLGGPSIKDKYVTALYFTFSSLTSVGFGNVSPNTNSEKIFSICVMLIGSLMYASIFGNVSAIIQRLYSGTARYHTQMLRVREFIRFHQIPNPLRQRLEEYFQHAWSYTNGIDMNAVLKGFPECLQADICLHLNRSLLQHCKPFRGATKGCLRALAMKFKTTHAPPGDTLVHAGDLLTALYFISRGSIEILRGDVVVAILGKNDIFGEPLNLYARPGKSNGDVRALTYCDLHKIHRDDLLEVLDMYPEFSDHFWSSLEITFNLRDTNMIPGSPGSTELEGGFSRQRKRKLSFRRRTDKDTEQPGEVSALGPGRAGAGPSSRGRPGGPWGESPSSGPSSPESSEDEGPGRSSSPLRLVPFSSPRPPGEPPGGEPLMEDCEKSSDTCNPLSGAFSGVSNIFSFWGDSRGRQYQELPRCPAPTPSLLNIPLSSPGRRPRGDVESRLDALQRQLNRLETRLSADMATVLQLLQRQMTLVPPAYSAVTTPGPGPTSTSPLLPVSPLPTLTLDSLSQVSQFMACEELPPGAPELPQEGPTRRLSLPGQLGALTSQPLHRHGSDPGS

One may read the IC50 as the concentration at which inhibition is half-maximal. The term inhibition denotes the drop in the measured response relative to a control, in per cent. `C[C@]1(O)CC[C@H](NS(=O)(=O)c2ccc(-c3c(F)cc(F)cc3F)cc2)CC1` [HMC-C-03-A, 2′,4′,6′-Trifluoro-N-((1r,4r)-4-hydroxy-4-methylcyclohexyl)biphenyl-4-sulfonamide]: the IC50 in data set [1] (setting [2]) came to 4 nM; in data set [1] (setting [3]), 50 nM. This compound returned an inhibition at 5 min, 30 µM against hERG (hERG tail current) of 45%.
For the compound `C[C@]1(O)CC[C@@H](NS(=O)(=O)c2ccc(-c3ccc(F)cc3F)c(F)c2)CC1` [HMC-C-04-B, 2,2′,4′-Trifluoro-N-((1s,4s)-4-hydroxy-4-methylcyclohexyl)-[1,1′-biphenyl]-4-sulfonamide], the IC50 in data set [1] (setting [3]) came to 30 nM.
`O=S(=O)(N[C@H]1CC[C@H](O)CC1)c1ccc(-c2ncc(Cl)cc2Cl)cc1` [ABD836, reference compound]: at hERG (hERG tail current), the inhibition at 5 min, 30 µM amounted to 50%.
`C[C@]1(O)CC[C@@H](NS(=O)(=O)c2ccc(-c3ncc(F)cc3F)c(F)c2)CC1` [HMC-N-01-B, 4-(3,5-Difluoropyridin-2-yl)-3-fluoro-N-((1s,4s)-4-hydroxy-4-methylcyclohexyl)benzenesulfonamide]: the IC50 in data set [1] (setting [3]) was 30 nM. The compound also registered an inhibition at 5 min, 30 µM at hERG (hERG tail current) of 27%.
For the compound `C[C@]1(O)CC[C@@H](NS(=O)(=O)c2ccc(-c3ccc(F)cc3C(F)(F)F)cc2)CC1` [HMC-C-02-B, 4′-Fluoro-N-((1s,4s)-4-hydroxy-4-methylcyclohexyl)-2′-(trifluoromethyl)-[1,1′-biphenyl]-4-sulfonamide], the IC50 in data set [1] (setting [3]) was determined as 290 nM. At hERG (hERG tail current), this compound came in with an inhibition at 5 min, 30 µM of 94%.
As to `C[C@]1(O)CC[C@@H](NS(=O)(=O)c2ccc(-c3c(F)cc(F)cc3F)cc2)CC1` [HMC-C-03-B, 2′,4′,6′-Trifluoro-N-((1s,4s)-4-hydroxy-4-methylcyclohexyl)-[1,1′-biphenyl]-4-sulfonamide], the IC50 in data set [1] (setting [3]) is 20 nM. This compound also returned an inhibition at 5 min, 30 µM at hERG (hERG tail current) of 36%.
`C[C@]1(O)CC[C@@H](NS(=O)(=O)c2ccc(-c3ccc(Cl)cc3C#N)cc2)CC1` [HMC-C-01-B, 4′-Chloro-2′-cyano-N-((1s,4s)-4-hydroxy-4-methylcyclohexyl)-[1,1′-biphenyl]-4-sulfonamide]: the IC50 in data set [1] (setting [3]) was found to be 60 nM. The compound further displayed an inhibition at 5 min, 30 µM against hERG (hERG tail current) of 74%.
As to `C[C@]1(O)CC[C@@H](NS(=O)(=O)c2ccc(-c3ncc(Cl)cc3Cl)cc2)CC1` [HMC-N-03-B, 4-(3,5-Dichloropyridin-2-yl)-N-((1s,4s)-4-hydroxy-4-methylcyclohexyl)benzenesulfonamide], the concentration for half-maximal inhibition (IC50) in data set [1] (setting [3]) worked out at 20 nM. In addition, the inhibition at 5 min, 30 µM against hERG (hERG tail current) stood at 47%.
On to `C[C@]1(O)CC[C@H](NS(=O)(=O)c2ccc(-c3ccc(Cl)cc3C#N)cc2)CC1` [HMC-C-01-A, 4′-Chloro-2′-cyano-N-((1r,4r)-4-hydroxy-4-methylcyclohexyl)biphenyl-4-sulfonamide], for which the IC50 in data set [1] (setting [2]) turned out to be 40 nM; in data set [1] (setting [3]), 180 nM. At hERG (hERG tail current), this compound displayed an inhibition at 5 min, 30 µM of 79%.
Regarding `Cc1cc(S(=O)(=O)N[C@H]2CC[C@H](O)CC2)ccc1-c1ccc(F)cc1F` [ABD735], the inhibition at 5 min, 30 µM against hERG (hERG tail current) came out at 62.5%.
The compound `C[C@]1(O)CC[C@H](NS(=O)(=O)c2ccc(-c3ccc(F)cc3F)cc2)CC1` [ABD900, reference compound] yielded an inhibition at 5 min, 30 µM against hERG (hERG tail current) of 51%.
Turning to `C[C@]1(O)CC[C@H](NS(=O)(=O)c2ccc(-c3ncc(F)cc3F)cc2)CC1` [HMC-N-02-A, 4-(3,5-Difluoropyridin-2-yl)-N-((1r,4r)-4-hydroxy-4-methylcyclohexyl)benzenesulfonamide], the IC50 in data set [1] (setting [2]) worked out at 150 nM; in data set [1] (setting [3]) it was 290 nM. The compound also registered an inhibition at 5 min, 30 µM against hERG (hERG tail current) of 31%.
On the same counts, the results for `C[C@]1(O)CC[C@H](NS(=O)(=O)c2ccc(-c3ncc(F)cc3F)c(F)c2)CC1` [HMC-N-01-A, 4-(3,5-Difluoropyridin-2-yl)-3-fluoro-N-((1r,4r)-4-hydroxy-4-methylcyclohexyl)benzenesulfonamide] are 130 nM, 280 nM and 2%.
`C[C@]1(O)CC[C@H](NS(=O)(=O)c2ccc(-c3ncc(Cl)cc3Cl)cc2)CC1` [HMC-N-03-A, 4-(3,5-Dichloropyridin-2-yl)-N-((1r,4r)-4-hydroxy-4-methylcyclohexyl)benzenesulfonamide]: the concentration for half-maximal inhibition (IC50) in data set [1] (setting [2]) came to 50 nM. Also, the inhibition at 5 min, 30 µM against hERG (hERG tail current) is 13%.
`Cc1cc(S(=O)(=O)NC2CCC(C)(O)CC2)ccc1-c1ccc(F)cc1F` (single isomer, unassigned) [REF001, reference compound] showed an inhibition at 5 min, 30 µM at hERG (hERG tail current) of 60%.
For `C[C@]1(O)CC[C@@H](NS(=O)(=O)c2ccc(-c3ccc(F)cc3F)cc2)CC1` [ABD899, reference compound], the inhibition at 5 min, 30 µM at hERG (a lab-scale batch was tested) came out at 100%; at hERG (a mid-scale batch was tested), 53%.
Turning to `C[C@]1(O)CC[C@@H](NS(=O)(=O)c2ccc(-c3ncc(F)cc3F)cc2)CC1` [HMC-N-02-B, 4-(3,5-Difluoropyridin-2-yl)-N-((1s,4s)-4-hydroxy-4-methylcyclohexyl)benzenesulfonamide], in data set [1] (setting [3]), the IC50 turned out to be 20 nM. Moreover, at hERG (hERG tail current), the inhibition at 5 min, 30 µM stood at 23%.
With `C[C@]1(O)CC[C@H](NS(=O)(=O)c2ccc(-c3ccc(F)cc3F)c(F)c2)CC1` [HMC-C-04-A, 2,2′,4′-Trifluoro-N-((1r,4r)-4-hydroxy-4-methylcyclohexyl)-[1,1′-biphenyl]-4-sulfonamide], the IC50 in data set [1] (setting [3]) amounted to 130 nM. The inhibition at 5 min, 30 µM against hERG (hERG tail current) is 69%.
In the case of `C[C@]1(O)CC[C@H](NS(=O)(=O)c2ccc(-c3ccc(F)cc3C(F)(F)F)cc2)CC1` [HMC-C-02-A, 4′-Fluoro-N-((1r,4r)-4-hydroxy-4-methylcyclohexyl)-2′-(trifluoromethyl)biphenyl-4-sulfonamide], the IC50 in data set [1] (setting [2]) amounted to 1 nM; in data set [1] (setting [3]), 970 nM. This compound came in with an inhibition at 5 min, 30 µM against hERG (hERG tail current) of 57%.
On hERG (hERG tail current), `C[C@]1(O)CC[C@H](NS(=O)(=O)c2ccc(-c3ncc(Cl)cc3Cl)c(F)c2)CC1` [HMC-N-04-A, 4-(3,5-Dichloropyridin-2-yl)-3-fluoro-N-((1r,4r)-4-hydroxy-4-methylcyclohexyl)benzenesulfonamide] displayed an inhibition at 5 min, 30 µM of 26%.
